Measurements from publication PMC6039563, “Functional Identification and Characterization of the Diuretic Hormone 31 (DH31) Signaling System in the Green Shore Crab, Carcinus maenas” (Frontiers in Neuroscience, 2018).
Ends that are not written are not given here.

Assays:
C. maenas DH31R [1] = target: T1, C. maenas DH31R (Carcinus maenas, UniProt A0A345BTT1); experiment: aequorin luminescence Ca2+ mobilization assay, CHO-K1-Aeq-Gα16 cells transiently expressing DH31R; format: cell-based; conditions: for luminescence response / activation of DH31R: DH31R-transfected CHO-K1-Aeq cells, tested up to micromolar levels; for EC50: read-out: EC50 of luminescence response
T1 sequence (A0A345BTT1 1-442): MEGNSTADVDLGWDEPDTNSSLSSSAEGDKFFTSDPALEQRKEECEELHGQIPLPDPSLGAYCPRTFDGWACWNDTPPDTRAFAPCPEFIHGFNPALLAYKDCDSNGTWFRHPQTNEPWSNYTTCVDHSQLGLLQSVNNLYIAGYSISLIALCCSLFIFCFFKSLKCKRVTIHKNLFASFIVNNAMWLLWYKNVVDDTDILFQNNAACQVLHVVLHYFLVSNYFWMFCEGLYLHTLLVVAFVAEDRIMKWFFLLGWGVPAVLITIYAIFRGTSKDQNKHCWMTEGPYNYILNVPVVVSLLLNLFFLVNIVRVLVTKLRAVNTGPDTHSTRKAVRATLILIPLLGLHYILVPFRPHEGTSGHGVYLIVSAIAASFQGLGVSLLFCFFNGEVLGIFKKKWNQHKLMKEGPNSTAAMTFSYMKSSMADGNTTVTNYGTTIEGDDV
Protocol: (§1) Cells were then diluted 10-fold prior to assay.
Amino acid sequences are shown in Supplementary Table S2. […] Receptor responses were normalized against total Ca^2+ luminescence.

C. maenas DH31R [2] = target: T1, C. maenas DH31R; experiment: cell-based
Protocol: as §1
Amino acid sequences are shown in Supplementary Table S2. […] Ca^2+ evoked luminescence was recorded for 40 s, followed by cell lysis (injection of 0.3% Triton-X 100 in BSA medium), and light emission recorded for a further 10 s. […] Receptor responses were normalized against total Ca^2+ luminescence.

[3] = CHO-K1-Aeq-Gα16 cells transiently expressing DH31R, simultaneously performed experiments with three DH31s (Figure 3 main panel), means of n = 4

Substance | luminescence response / activation of DH31R (C. maenas DH31R [1]) | EC50 (C. maenas DH31R [1]; [3]) | further results
MQRPQGPSLSVANPIEVLRSRLLLEIARRRMKEQDASRVSKNRQYLQQIG [R. prolixus CRF-like DH, Rhodnius prolixus corticotropin releasing factor-like diuretic hormone (I. Orchard, Toronto)] | No luminescence responses |  | 
GLDLGLGRGFSGSQAAKHLMGLAAANFAGGP-NH2 [Tribolium castaneum DH31] |  | ~30 nM | 
GLDMGLGRGFSGSQAAKHLMGLAAANYAGGP-NH2 [C. maenas DH31] |  | ~30 nM | EC50 (C. maenas DH31R [1]; CHO-K1-Aeq-Gα16 cells transfected with DH31R, Figure 3 inset, independent set of transfections, means of N = 4): ~15 nM; EC50 (C. maenas DH31R [2]): ~15 nM
NSELINSLGLPKVMNDA-NH2 [C. maenas PDH-1, C. maenas pigment dispersing hormone-1 (Liverpool University)] | No luminescence responses |  | luminescence response / activation of DH31R (C. maenas DH31R [1]; listed as PDH-1): does not activate
GLDLGLSRGFSGSQAAKHLMGLAAANYAGGP-NH2 [Diploptera punctata DH31] |  | ~30 nM | 
